Measured values from patent US20250059187A1, “COVALENTLY BINDING INHIBITORS OF G12S, G12D AND/OR G12E MUTANTS OF K-RAS GTPASE” (The Regents of the University of California, priority 2021, published 2025).
Entries after “also recorded” stand apart in the source; their conditions may differ.

Legend:
wild type K-Ras [1] = molecular target: T1, wild type K-Ras (Homo sapiens, UniProt P01116); assay: Covalent modification of test protein after incubation with compound; assay type: binding; conditions: 24-h incubation with 100 μM compound at 23° C. at pH 7.5
T1 construct: human K-Ras (wildtype, aa 1-169); 6xHis tag + TEV cleavage site (N, cleaved yes); made in house; host or cells: E. coli BL21(DE3)

K-Ras G12E = molecular target: T2, K-Ras G12E (Homo sapiens, UniProt P01116, G12E); assay: as above; assay type: binding; conditions: 24-h incubation with 100 μM compound at 23° C. at pH 7.5
T2 construct: human K-Ras (G12E, aa 1-169); 6xHis tag + TEV cleavage site (N, cleaved yes); made in house; host or cells: E. coli BL21(DE3)

K-Ras G12D = molecular target: T3, K-Ras G12D (Homo sapiens, UniProt P01116, G12D); assay: as above; assay type: binding; conditions: 24-h incubation with 100 μM compound at 23° C. at pH 7.5
T3 construct: human K-Ras (G12D, aa 1-169); 6xHis tag + TEV cleavage site (N, cleaved yes); made in house; host or cells: E. coli BL21(DE3)

[2] = molecular target: T4, interaction between Raf-RBD and K-Ras(G12D) (Homo sapiens, UniProt P01116, G12D); assay: Time-resolved fluorescence energy transfer assay, Raf-RBD and K-Ras(G12D); assay type: biochemical; conditions: dose-dependent
T4 construct: human K-Ras (G12D, aa 1-169); 6xHis tag + TEV cleavage site (N); made in house; host or cells: E. coli BL21(DE3) for K-Ras

K-Ras(G12S) [3] = molecular target: T5, K-Ras(G12S) (Homo sapiens, UniProt P01116, G12S); assay: Sos- or EDTA-mediated nucleotide exchange assay (BODIPY-GDP); assay type: biochemical; design: human K-Ras (G12S, aa 1-169); 6xHis tag + TEV cleavage site (N, cleaved yes); made in house; host or cells: E. coli BL21(DE3) for K-Ras; conditions: K-Ras(G12S) adduct
Protocol: This assay was performed as previously reported (2-5) with slight modifications. BODIPY-GDP-loaded K-Ras proteins were prepared freshly as follows. To a 10 μM solution of K-Ras(wildtype)·GDP, K-Ras(G12S)·GDP, or K-Ras(G12S)·GDP·1′ in SEC Buffer (1 mL) was added sequentially BODIPY-GDP (5 mM, 40 μL, Thermo Fisher, final concentration 200 μM) and Na-EDTA pH 8.0 (0.5 M, 5 μL, final concentration 2.5 mM). The mixture was incubated at 23° C. for 1 h, and a solution of MgCl2 (1.0 M, 20 μL, […]) was added to the reaction mixture. The protein solution was run through a PD-10 column to remove the excess nucleotide following the manufacturer's protocol. Briefly, sample (˜1.0 mL) and excess buffer (1.5 mL) were loaded onto the column (equilibrated with NucEx Buffer), and desalted protein was eluted with NucEx Buffer (3.5 mL). Protein concentration was measured with Bradford assay and adjusted to 1.25 μM with NucEx Buffer. 12 μL of this solution (triplicate for each condition) was added to wells of a black 384-well low-volume assay plate (Corning 4514). […] The plate was immediately placed in a TECAN Spark 20M plate reader, and fluorescence for BODIPY (excitation 488 nm, emission 520 nm) was read every 30 s over 1 h. Fluorescence intensity was normalized to values at time 0 and plotted again time. […]

wild type K-Ras [4] = molecular target: T1, wild type K-Ras; assay: Covalent modification of recombinant wild-type K-Ras by whole-protein mass spectrometry; assay type: binding; conditions: 23° C.
Protocol: (§1) Test compounds were prepared as 100× stock solutions in DMSO. K-Ras proteins were diluted with SEC Buffer (20 mM HEPES 7.5, 150 mM NaCl, 1 mM MgCl2) to 400 nM or 1 μM. In a typical reaction, 0.5 μL 100× compound stock was mixed with 50 μL diluted K-Ras protein, and the resulting mixture was incubated for the desired amount of time. The extent of modification was assessed by electrospray mass spectrometry using a Waters Xevo G2-XS system equipped with an Acquity UPLC BEH C4 1.7 μm column. The mobile phase was a linear gradient of 5-95% acetonitrile/water+0.05% formic acid. For kinetic measurements, a 2× compound solution was first prepared in SEC Buffer, which was then mixed with 400 nM K-Ras(G12S) protein at 1:1 (v/v) ratio. Injection time stamps were used to calculate elapsed time.
as §1, with “K-Ras(G12D)” for “K-Ras(G12S)”

K-Ras(G12S)·GDP = molecular target: T6, K-Ras(G12S)·GDP (Homo sapiens, UniProt P01116, G12S); assay: Differential scanning fluorimetry of K-Ras(G12S)·GDP and its adduct; assay type: binding
T6 construct: human K-Ras (G12S, aa 1-169); 6xHis tag + TEV cleavage site (N, cleaved yes); made in house; host or cells: E. coli BL21(DE3)
Protocol: The protein of interest was diluted with SEC Buffer [20 mM HEPES 7.5, 150 mM NaCl, 1 mM MgCl2] to 8 μM. This solution was dispensed into wells of a white 96-well PCR plate in triplicate (25 μL/well). Fluorescence was measured at 0.5-° C. temperature intervals every 30 s from 25° C. to 95° C. on a Bio-Rad CFX96 qPCR system using the FRET setting. Each data set was normalized to the highest fluorescence and the normalized fluorescence reading was plotted against temperature in GraphPad Prism 8.0. Tm values were determined as the temperature(s) corresponding to the maximum(ma) of the first derivative of the curve.

K-Ras(G12S) [5] = molecular target: T5, K-Ras(G12S); assay: Covalent modification of recombinant K-Ras(G12S) by whole-protein mass spectrometry; assay type: binding; design: human K-Ras (G12S, aa 1-169); 6xHis tag + TEV cleavage site (N, cleaved yes); made in house; host or cells: E. coli BL21(DE3); conditions: for extent of modification of K-Ras(G12S)·GDP: 10 μM compound, 4 μM protein
Protocol: as §1, with “The mobile phase was a linear gradient of 5-95% acetonitrile/water+0.05% formic acid.” left out
as §1, with “The mobile phase was a linear gradient of 5-95% acetonitrile/water+0.05% formic acid.” left out, “K-Ras(G12D)” for “K-Ras(G12S)”

BaF3/K-Ras(G12D) cells = assay: Growth inhibition of BaF3/K-Ras(G12D) cells; assay type: cell-based, murine; conditions: Mus musculus, read-out: IC50, growth of BaF3/K-Ras(G12D) cells
Protocol: (§2) Cells were seeded into 96-well white flat bottom plates (1,000 cells/well) (Corning) and incubated overnight. Cells were treated with the indicated compounds in a nine-point threefold dilution series (100 μL final volume) and incubated for 72 h. Cell viability was assessed using a commercial CellTiter-Glo (CTG) luminescence-based assay (Promega). Briefly, the 96-well plates were equilibrated to room temperature before the addition of diluted CTG reagent […] (1:4 CTG reagent:PBS). Plates were placed on an orbital shaker for 30 min before recording luminescence using a Spark 20M (Tecan) plate reader.

[6] = Stability of substituted β-lactones in PBS 7.4 at 23° C.; assay type: physicochemical; conditions: after 24 h, pH 7.4
[7] = test system: parental Ba/F3 cells (with IL-3); assay: Cell viability assay (CellTiter-Glo), parental Ba/F3 cells; assay type: cell-based, murine; conditions: 10 μM
Protocol: as §2, with “Cells were treated with the indicated compounds in a nine-point threefold dilution series (100 μL final volume) and incubated for 72 h.” left out

C#Cc1cccc2cccc(-c3ncc4c(N5C[C@H]6CC[C@@H](C5)N6C(=O)C5CC(=O)O5)nc(OCC56CCCN5CCC6)nc4c3F)c12 (mixture of isomers) [(RS)-1]
% covalent modification of wild type K-Ras (wild type K-Ras [1]): 0%
% covalent modification of K-Ras G12E (K-Ras G12E): 6.3%
% covalent modification of K-Ras G12D (K-Ras G12D): 100%
interaction between Raf-RBD and K-Ras(G12D) [2]: disrupted Ras-RafRBD binding

CN1CCC[C@H]1COc1nc2c(c(N3CCC4C(=O)OC4C3)n1)CCN(c1cccc3cccc(Cl)c13)C2 (some centres unmarked) [1′]
% covalent modification of wild type K-Ras (wild type K-Ras [1]): 7.0%
EDTA promoted nucleotide exchange (K-Ras(G12S) [3]; EDTA): decreased the rate of EDTA promoted exchange
Sos-catalyzed nucleotide exchange (K-Ras(G12S) [3]; Sos): blocked Sos-catalyzed exchange
% covalent modification of K-Ras G12E (K-Ras G12E): 12.0%
covalent adducts with wild-type K-Ras protein (wild type K-Ras [4]; 10 μM compound, 4 μM protein): neither of these compounds formed covalent adducts
% covalent modification of wild type K-Ras (wild type K-Ras [4]; 24-h incubation, 100 μM compound, pH 7.5): 7.0%
change of melting temperature of K-Ras(G12S)·GDP on adduct formation (K-Ras(G12S)·GDP): +17.2 °C
melting temperature (Tm) of the K-Ras(G12S)·GDP adduct (K-Ras(G12S)·GDP; unmodified K-Ras(G12S)·GDP 53.7° C.): 70.9 °C
% covalent modification of K-Ras G12D (K-Ras G12D): 7.0%
extent of modification of K-Ras(G12S)·GDP (K-Ras(G12S) [5]; 1 hour, 23° C.): 64%
extent of modification of K-Ras(G12S)·GDP (K-Ras(G12S) [5]; 12 h): 100%
% covalent modification of K-Ras G12S (K-Ras(G12S) [5]; 24-h incubation, 100 μM compound, 23° C., pH 7.5): 100%
reaction with GppNHp-loaded K-Ras(G12S) (K-Ras(G12S) [5]; GppNHp-loaded protein, identical conditions): no reaction was observed; also recorded: does not react

CC(C)[C@@H]1C(=O)O[C@H]1C(=O)N1[C@@H]2CC[C@H]1CN(c1nc(OCC34CCCN3CCC4)nc3c(F)c(-c4cccc5cccc(Cl)c45)ncc13)C2 [Compound 4]
IC50 (BaF3/K-Ras(G12D) cells): 71 nM
material remaining intact (hydrolysis) [6]: > 90%

C=C(F)C(=O)N1CCN(c2nc(OC[C@@H]3CCCN3C)nc3c2CCN(c2cccc4cccc(Cl)c24)C3)C[C@@H]1CC#N [adagrasib, reference compound]
cell death of parental Ba/F3 cells [7]: complete cell death
